In patent publication US20260231590A1, “AROMATIC COMPOUND, ORGANIC SEMICONDUCTOR LAYER AND ORGANIC THIN FILM TRANSISTOR” (TOSOH CORPORATION, priority 2023, published 2026):

Columns and labels:
Type in all cases: physicochemical
[1] = Solution for forming an organic semiconductor layer: dissolved in toluene at 50° C., state after cooling to 25° C.; details: 0.44 mg in 434 mg of toluene, heated to 50° C., allowed to cool at room temperature (25° C.)
[2] = as above; details: 0.20% by weight in toluene, dissolved at 50° C., after 10 hours at 25° C.
Experimental: In air, 1.74 mg of the 2,8-di(2-cyclohexylethyl)anthra[1,2-b:5,6-b′]dithiophene synthesized in Example 2 (compound 2) and 868 mg of toluene (FUJIFILM Wako Pure Chemical Industries Corporation, pure grade) were added to a 10-ml sample tube. After dissolution by heating to 50° C., the solution was allowed to cool at room temperature (25° C.), whereby a solution for forming an organic semiconductor layer was prepared. […] (the concentration of compound 2 was 0.20% by weight), confirming that compound 2 is a compound suitable for film formation by drop casting and inkjet printing.

[3] = Evaluation of solubility in organic solvents; details: room temperature (25° C.), complete dissolution by visual observation
Experimental: Toluene and n-octane were each added to predetermined amounts of the aromatic compounds obtained in Examples 1, 4, 5, 6, 7, 8, 9, 12, 13, 14, 15, 18, 19, 20, 22 and 23 to give compositions for film formation. The weight of each organic solvent required to completely dissolve the aromatic compound at room temperature (25° C.) was measured, and solubility (% by weight) was calculated. The determination of the point of complete dissolution was confirmed by visual observation.

Row | Structure (SMILES) | state of solution for forming an organic semiconductor layer [1] | state of solution for forming an organic semiconductor layer [2] | Solubility [% by weight] n-octane [3] | Solubility [% by weight] Toluene [3]
1 | c1ccc(-c2ccc3c(c2)sc2c4ccc(-c5ccccc5)cc4sc32)cc1 [2,7-diphenyl[1]benzothieno[3,2-b][1]benzothiophene] | solid precipitation observed | – | – | –
2 | CCCCCCCCc1cc2ccc3cc4c(ccc5cc(CCCCCCCC)sc54)cc3c2s1 [2,8-dioctylanthra[1,2-b:5,6-b′]dithiophene, reference compound] | – | remained in solution form | – | –
3 | c1cc2ccc3cc4c(ccc5cc(CCC6CCCCC6)sc54)cc3c2s1 [Compound 1, 2-(2-Cyclohexylethyl)anthra[1,2-b:5,6-b′]dithiophene] | – | – | ≥0.1 % by weight | ≥1.0 % by weight
4 | c1cc2cc(CCC3CCCCC3)sc2c2cc3ccc4cc(CCC5CCCCC5)sc4c3cc12 [Compound 2, 2,8-Di(2-cyclohexylethyl)anthra[1,2-b:5,6-b′]dithiophene] | – | remained in solution form | – | –
5 | CCCc1cc2ccc3cc4c(ccc5cc(CCC6CCCCC6)sc54)cc3c2s1 [Compound 4, 2-(2-Cyclohexylethyl)-8-propylanthra[1,2-b:5,6-b′]dithiophene] | – | – | ≥0.5 % by weight | ≥1.0 % by weight
6 | CC(C)Cc1cc2ccc3cc4c(ccc5cc(CCC6CCCCC6)sc54)cc3c2s1 [Compound 5, 2-(2-Cyclohexylethyl)-8-isobutylanthra[1,2-b:5,6-b′]dithiophene] | – | – | ≥0.2 % by weight | ≥1.0 % by weight
7 | CCCCc1cc2ccc3cc4c(ccc5cc(CCC6CCCCC6)sc54)cc3c2s1 [Compound 6, 2-Butyl-8-(2-cyclohexylethyl)anthra[1,2-b:5,6-b′]dithiophene] | – | – | ≥0.5 % by weight | ≥1.0 % by weight
8 | CCCCCc1cc2ccc3cc4c(ccc5cc(CCC6CCCCC6)sc54)cc3c2s1 [Compound 7, 2-(2-Cyclohexylethyl)-8-pentylanthra[1,2-b:5,6-b′]dithiophene] | – | – | ≥0.2 % by weight | ≥1.0 % by weight
9 | CCCCCCc1cc2ccc3cc4c(ccc5cc(CCC6CCCCC6)sc54)cc3c2s1 [Compound 8, 2-(2-Cyclohexylethyl)-8-hexylanthra[1,2-b:5,6-b′]dithiophene] | – | remained in solution form | ≥0.5 % by weight | ≥1.0 % by weight
10 | c1cc2ccc3cc4c(ccc5cc(CCC6CCCC6)sc54)cc3c2s1 [Compound 9, 2-(2-Cyclopentylethyl) anthra[1,2-b:5,6-b′]dithiophene] | – | – | ≥1.0 % by weight | ≥1.0 % by weight
11 | c1cc2cc(CCC3CCCC3)sc2c2cc3ccc4cc(CCC5CCCC5)sc4c3cc12 [Compound 10, 2,8-Di(2-cyclopentylethyl)anthra[1,2-b:5,6-b′]dithiophene] | – | remained in solution form | – | –
12 | CC(C)Cc1cc2ccc3cc4c(ccc5cc(CCC6CCCC6)sc54)cc3c2s1 [Compound 12, 2-(2-Cyclopentylethyl)-8-isobutylanthra[1,2-b:5,6-b′]dithiophene] | – | remained in solution form | ≥0.5 % by weight | ≥1.0 % by weight
13 | CCCCCCc1cc2ccc3cc4c(ccc5cc(CCC6CCCC6)sc54)cc3c2s1 [Compound 13, 2-(2-Cyclopentylethyl)-8-hexylanthra[1,2-b:5,6-b′]dithiophene] | – | remained in solution form | ≥0.5 % by weight | ≥1.0 % by weight
14 | c1cc2cc(CCC3CCCCC3)sc2c2cc3ccc4cc(CCC5CCCC5)sc4c3cc12 [Compound 14, 2-(2-Cyclohexylethyl)-8-(2-cyclopentylethyl)anthra[1,2-b:5,6-b′]dithiophene] | – | remained in solution form | ≥1.0 % by weight | ≥1.0 % by weight
15 | c1cc2ccc3cc4c(ccc5cc(CCCC6CCCCC6)sc54)cc3c2s1 [Compound 15, 2-(3-Cyclohexylpropyl)anthra[1,2-b:5,6-b′]dithiophene] | – | – | ≥0.5 % by weight | ≥1.0 % by weight
16 | CCCCCCc1cc2ccc3cc4c(ccc5cc(CCCC6CCCCC6)sc54)cc3c2s1 [Compound 18, 2-(3-Cyclohexylpropyl)-8-hexylanthra[1,2-b:5,6-b′]dithiophene] | – | remained in solution form | ≥0.2 % by weight | ≥1.0 % by weight
17 | c1cc2ccc3c(c2s1)-c1ccc2cc(CCC4CCCCC4)sc2c1-3 [Compound 19, 2-(2-Cyclohexylethyl) biphenyleno[1,2-b:5,6-b′]dithiophene] | – | – | ≥0.5 % by weight | ≥1.0 % by weight
18 | c1cc2cc(CCC3CCCCC3)sc2c2c1-c1c-2ccc2cc(CCC3CCCCC3)sc12 [Compound 20, 2,7-Bis(2-cyclohexylethyl)biphenyleno[1,2-b:5,6-b′]dithiophene] | – | remained in solution form | ≥0.5 % by weight | ≥1.0 % by weight
19 | c1cc2cc(CCC3CCCC3)sc2c2c1-c1c-2ccc2cc(CCC3CCCC3)sc12 [Compound 23, 2,7-Bis(2-cyclopentylethyl)biphenyleno[1,2-b:5,6-b′]dithiophene] | – | – | ≥0.2 % by weight | ≥1.0 % by weight
20 | CCCCCc1cc2ccc3cc4c(ccc5cc(CCCC6CCCCC6)sc54)cc3c2s1 [Compound 25, 2-(3-Cyclohexylpropyl)-8-pentylanthra[1,2-b:5,6-b′]dithiophene] | – | remained in solution form | – | –
21 | CCCCCCc1cc2ccc3cc4c(ccc5cc(CCCC6CCCC6)sc54)cc3c2s1 [Compound 31, 2-(3-Cyclopentylpropyl)-8-hexylanthra[1,2-b:5,6-b′]dithiophene] | – | remained in solution form | – | –
22 | CCCCCCCCc1ccc(CCc2cc3ccc4cc5c(ccc6cc(CCC7CCCCC7)sc65)cc4c3s2)cc1 [Compound 40, 2-(2-Cyclohexylethyl)-8-(4-octylphenylethyl)anthra[1,2-b:5,6-b′]dithiophene] | – | remained in solution form | – | –
